Measured values published in patent publication US9150581B2, “Nicotinic receptor compounds” (priority 2011, dated 2015).
Several values for one entry are separate records, joined by “and”; a condition that tells them apart may be missing. Equal entries are not always repeated. Structures can show the parent of a compound that is named as a salt. Where two headings read alike, the source gives them in different places.

Key:
Male Sprague-Dawley rats [1] = conditions: for Blockade of nicotine's hypertensive effects: given prior to 1.78 mg/kg nicotine, RTI-154 10 mg/kg, DHβE 5.6 mg/kg
Method: Male Sprague-Dawley rats (approximately 300 g) were obtained from Harlan, Inc. (Indianapolis, Ind.) and group-housed upon arrival. Food and water were freely available for all rats at all times. Housing and experimental rooms were maintained on a 12 h light/dark cycle with lights on at 7:00 AM with an average temperature of 21° C.
Surgical Procedures. To measure changes in heart rate and mean arterial pressure, rats were implanted with telemetric transmitters (TA11PAC40 or TL11M2-C50-PXT, Data Sciences International, Transoma Medical Inc., St. Paul, Minn., USA) under ketamine (90 mg/kg, i.p.) and xylazine (10 mg/kg, i.p.) anesthesia. An incision is made in the skin approximately 1 in to the left or right of the spine and over the left or right thigh to expose the femoral artery. The transmitter is placed into the incision on the dorsal side and into a subcutaneous pocket (made by separating the connective tissue between the skin and muscle) on the side of the abdomen. This positioning prevents the rats from manipulating the incision site and gaining access to the transmitter. The catheter extending from the base of the transmitter is threaded subcutaneously, placed 3 cm into the femoral artery, and secured with suture. Incisions were closed with 5.0 Ethicon nylon monofilament suture. Following surgery, rats were singly-housed and monitored for at least 7 days for signs of recovery (normal eating, drinking, and defecating patterns) prior to experimentation. All rats continued to have free access to food and water at all times.
Telemetry System. The system consists of battery-operated transmitters surgically implanted (described above), Physiotel® receivers, the DSI Data Exchange Matrix, and the Dataquest A.R.T. system, which collects and stores digital data from the receiver onto a computer (Data Sciences International, Transoma Medical Inc., St. Paul, Minn., USA). Blood pressure and heart rate data were analyzed by the Dataquest A.R.T. Gold Analysis 3.01 software.
At the start of an experiment, rats' home cages were placed on top of the receivers, and baseline data was collected for at least 1 h to allow heart rate and blood pressure to return to resting levels. All rats were given a saline injection to ensure that they are habituated to the injection and handling procedure on the test day. After heart rate and blood pressure returned to resting levels again, rats were injected with a treatment, consisting either of a single drug dose or a pretreatment drug administered 15 min prior to a test drug. Data was collected for at least 2 h following the last injection. All injections were administered subcutaneously (s.c.) in a volume of 1 ml/kg.
Each rat was used to evaluate multiple experimental conditions, such that each rat may receive as many as 4-6 different treatments, one per week with at least 6 days between drug exposures. […] Once the rats weigh approximately 450 g (body weight at time of transmitter implant: 300-350 g), the rat is no longer used for experiments, and the transmitter is removed.
Data were collected throughout baseline, before, and after drug treatments. The analysis program calculated an average heart rate and mean arterial pressure (MAP) every 10 sec. These 10 secepochs are then averaged over 1 min per rat, and data from at least 6 rats were averaged for each treatment group.

Male Sprague-Dawley rats [2] = format: in vivo, rat; conditions: for Nicotine-like discriminative stimulus effects: compound alone (FIG. 3); for Shift of discriminative stimulus dose-effect curve of small dose of nicotine: small training dose of nicotine
Method: A drug discrimination assay was performed to measure the relevant effects of nicotine as it influences tobacco use and abuse. In a drug discrimination assay, food restricted rates are trained to make one response (select one of two nose-poke apertures in the test chamber) following administration of a particular drug, and a different response (select the other aperture) following administration of saline. The appropriate response is followed by delivery of food, and there is no cue as to which aperture will result in food delivery other than the presence or absence of the drug. Once trained, the animals respond on the “drug-associated” aperture following drug administration and on the “saline-associated” aperture following saline administration. In addition, administration of drug doses that are smaller than the training dose produce intermediate responses on the drug-associated aperture such that monotonically increasing dose-response curves can be generated in drug discrimination assays.
Male Sprague-Dawley rats were obtained from Harlan, Inc (Indianapolis, Ind.) and singly housed in polycarbonate cages with water continuously available. All rats weighed approximately 280-290 gms at the start of the experiment. A food-restricted diet of Purina rodent food allowed the animals to grow but maintain motivation to respond to earn food pellets. A 12 hr light-dark cycle turned the lights on at 7:00 am. Standard operant conditioning chambers (ENV-008, Med-Associates, St Albans, Vt.) were used for establishing and evaluating the nicotine discrimination. Each chamber contains two nose-poke devices with apertures containing yellow LED lights on either side of a dipper capable of delivering 50 μl of fluid into a third opening.
Initially, each rat was trained to insert its nose into one of the apertures and received vanilla-flavored Ensure as a consequence. During discrimination training, rats designated in the small dose group were injected with either saline or 0.32 mg/kg of nicotine. Ten consecutive responses on the appropriate lever (one side following saline administration; the other side following nicotine administration) was followed by presentation of the Ensure for 10 s, followed by a 10 s timeout. Selection of the incorrect lever, and completion of the 10 consecutive responses in this lever results in a 10 s timeout. Criteria for learning the discrimination are 1) responding on the first FR of the session is completed on the injection appropriate aperture; 2) >85% of the total session responses are made on the injection-appropriate aperture.
Each session was divided into several components of 25 min duration. Following an injection, the first five minutes of each component were black out, and the stimulus lights were illuminated for the remaining 20 min, during which injection-appropriate responses were reinforced.
One to four components comprised daily sessions Animals were injected with saline or nicotine prior to the start of the session, or following one or more of the […] components. Possible injection conditions were (S=saline, N=nicotine) S—S—S—S; N; S—N; S—S—N; S—S—S—N. Nicotine administration is always given in the final component if it is given at all.
If a potential antagonist was given, it was administered prior to the session at a time determined by earlier studies to be sufficient for peak effects to be established. The session components then comprised increasing doses of nicotine, each given before consecutive blackout periods. No more than two antagonist sessions were given each week, and once each month a nicotine dose-response curve was determined to assure no changes in sensitivity to nicotine. Full generalization to the nicotine discriminative cue is defined by >85% responding on the drug-associated aperture and completing at least one FR.
A second, large-nicotine trained group of rats were treated in an identical manner except that their training dose of nicotine is 1.78 mg/kg. […]

mice [3] = assay: Antagonism of nicotine antinociception, hot-plate; format: in vivo, mouse; conditions: for AD50 Hot-Plate: mice pretreated sc 10 min before nicotine 2.5 mg/kg sc; for Antagonism Hot-Plate, % at dose: before nicotine 2.5 mg/kg sc
Method: (§1) In the tail-flick method of D'Amour and Smith, (D'Amour, F. E.; Smith, D. L. J. Pharmacol. Exp. Ther. 1941, 72, 74-79), the tail is exposed to a heat lamp and the amount of time taken for the animal to move (flick) its tail away from the heat is recorded. […] Mice were placed into a 10-cm wide glass cylinder on a hot plate (Thermojust Apparatus) maintained at 55.0° C. Two control latencies at least 10 min apart were determined for each mouse. […] The reaction time was scored when the animal jumped or licked its paws. The mice were tested 5 min after subcutaneous (sc) injections of nicotinic ligands for the dose-response determination. Antinociceptive response was calculated as percentage of maximum possible effect (% MPE, where % MPE=[(test−control)/(maximum latency−control)×100]).
(§2) Nicotine was administered at a dose of 2.5 mg/kg, sc (an ED84 dose), and mice were tested 5 min later. ED50 and AD50 values with 95% confidence limits were determined.

α4β2 nAChR = α4β2 nAChR (Rattus norvegicus (Rat), UniProt P09483+P12390); assay: Inhibition of [3H]epibatidine binding at the α4β2 nAChR in male rat cerebral cortex; conditions: αβ [3H]Epibatidine (Ki, nM)
Chain of α4β2 nAChR (P09483 31-630 limits assumed): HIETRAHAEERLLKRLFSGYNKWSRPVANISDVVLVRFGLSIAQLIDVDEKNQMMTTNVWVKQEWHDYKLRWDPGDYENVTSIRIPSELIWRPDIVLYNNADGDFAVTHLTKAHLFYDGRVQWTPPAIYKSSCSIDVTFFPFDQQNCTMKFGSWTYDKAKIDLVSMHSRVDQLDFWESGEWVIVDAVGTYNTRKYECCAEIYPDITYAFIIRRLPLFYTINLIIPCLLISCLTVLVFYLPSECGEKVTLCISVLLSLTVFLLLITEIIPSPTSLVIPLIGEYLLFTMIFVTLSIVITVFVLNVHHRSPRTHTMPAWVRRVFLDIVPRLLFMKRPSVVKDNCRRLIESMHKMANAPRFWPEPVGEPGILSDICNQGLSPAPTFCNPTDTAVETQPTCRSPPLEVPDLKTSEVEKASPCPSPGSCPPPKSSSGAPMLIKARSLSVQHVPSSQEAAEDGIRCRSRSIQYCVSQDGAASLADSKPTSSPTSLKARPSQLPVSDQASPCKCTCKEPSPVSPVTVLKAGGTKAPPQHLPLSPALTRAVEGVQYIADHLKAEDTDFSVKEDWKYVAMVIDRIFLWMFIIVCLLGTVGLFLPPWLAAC
Chain of α4β2 nAChR (P12390 25-500 limits assumed): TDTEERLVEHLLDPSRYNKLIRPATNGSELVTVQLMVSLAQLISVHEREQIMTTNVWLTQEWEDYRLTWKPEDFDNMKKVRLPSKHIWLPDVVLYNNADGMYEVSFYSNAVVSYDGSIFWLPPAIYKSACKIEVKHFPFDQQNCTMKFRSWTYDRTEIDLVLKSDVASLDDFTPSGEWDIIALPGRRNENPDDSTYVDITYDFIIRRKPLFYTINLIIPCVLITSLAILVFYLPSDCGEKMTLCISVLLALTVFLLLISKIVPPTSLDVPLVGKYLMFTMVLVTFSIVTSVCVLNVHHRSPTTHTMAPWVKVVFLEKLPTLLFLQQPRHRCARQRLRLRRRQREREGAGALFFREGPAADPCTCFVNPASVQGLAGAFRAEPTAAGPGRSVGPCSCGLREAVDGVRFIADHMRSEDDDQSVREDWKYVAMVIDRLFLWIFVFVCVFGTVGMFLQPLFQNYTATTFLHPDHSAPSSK

mice [4] = assay: Antagonism of nicotine antinociception, tail-flick; format: in vivo, mouse; conditions: mice pretreated sc 10 min before nicotine 2.5 mg/kg sc
Method: as §1, §2

mice [5] = assay: Hot-plate test (antinociception); format: in vivo, mouse; conditions: @ 10 mg/kg, sc
Method: as §1

mice [6] = assay: Tail-flick test (antinociception); format: in vivo, mouse; conditions: @ 10 mg/kg, sc
Method: as §1

mice [7] = assay: Hypothermia (rectal temperature); format: in vivo, mouse; conditions: sc; for Hypothermia, % effect at dose: @ 10 mg/kg
Method: (§3) Interruptions of the photocell beams (two banks of eight cells each) were then recorded for the next 10 min. Data were expressed as number of photocell interruptions. Rectal temperature was measured by a thermistor probe (inserted 24 mm) and digital thermometer (Yellow Springs Instrument Co., Yellow Springs, Ohio). […] The difference in rectal temperature before and after treatment was calculated for each mouse. The ambient temperature of the laboratory varied from 21 to 24° C. from day to day.

mice [8] = assay: Spontaneous activity (photocell activity cages); format: in vivo, mouse; conditions: sc
Method: as §3

Male ICR adult mice = format: in vivo, mouse
α7 nAChR = α7 nAChR (Rattus norvegicus (Rat), UniProt Q05941); format: binding; conditions: read-out: α7 [125I]iodoMLA (Ki)
Chain of α7 nAChR (Q05941 23-502 limits assumed): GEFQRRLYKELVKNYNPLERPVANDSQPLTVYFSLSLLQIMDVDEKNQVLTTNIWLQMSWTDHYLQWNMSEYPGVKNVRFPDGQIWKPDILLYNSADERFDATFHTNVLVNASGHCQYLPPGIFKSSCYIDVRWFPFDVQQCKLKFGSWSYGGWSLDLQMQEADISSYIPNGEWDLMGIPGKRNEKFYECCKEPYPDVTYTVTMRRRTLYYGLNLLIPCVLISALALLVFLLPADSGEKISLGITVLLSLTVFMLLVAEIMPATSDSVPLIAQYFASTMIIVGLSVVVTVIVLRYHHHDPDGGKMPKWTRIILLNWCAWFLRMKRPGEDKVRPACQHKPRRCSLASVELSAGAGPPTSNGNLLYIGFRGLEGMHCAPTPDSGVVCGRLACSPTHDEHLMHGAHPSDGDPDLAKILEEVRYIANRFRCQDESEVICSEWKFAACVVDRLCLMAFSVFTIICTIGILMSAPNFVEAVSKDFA

[9] = listed as (±)-154, hydrochloride

Molecule: Clc1ccc(C2CC3CCC2N3)cn1 (single isomer, unassigned; (-)) [(−)-epibatidine, epibatidine]
- Effect on blood pressure (Male Sprague-Dawley rats [1]; rats, s.c., compound alone): substantial increases in blood pressure
- Nicotine-like discriminative stimulus effects (Male Sprague-Dawley rats [2]): extremely potent full nicotine-like agonist

Molecule: CO[C@H]1CC=C2CCN3CCC4=C(CC(=O)OC4)[C@]23C1 [DHβE, dihydro-beta-erythroidine]
- Blockade of nicotine's hypertensive effects (Male Sprague-Dawley rats [1]; rats): did not block
- Cardiovascular effects (heart rate and mean arterial pressure) (Male Sprague-Dawley rats [1]; rats, s.c., compound alone): no cardiovascular effects
- Effect on blood pressure (Male Sprague-Dawley rats [1]; rats, s.c., compound alone): no changes in blood pressure
- Effect on rate-decreasing effects of nicotine (Male Sprague-Dawley rats [2]): did not antagonize
- Shift of discriminative stimulus dose-effect curve of small dose of nicotine (Male Sprague-Dawley rats [2]): parallel rightward shifts
- Shift of large dose-nicotine dose-response curve (Male Sprague-Dawley rats [2]; training dose of nicotine 1.78 mg/kg): much less robust rightward shifts

Molecule: Fc1ncc(C2CC3CCC2N3)cc1-c1ccc(C(F)(F)F)cc1 (centres unmarked) [RTI-7527-153, 2-(5-(4-Trifluoromethane-phenyl)-6-fluoro-pyridin-3-yl)-7-aza-bicyclo[2.2.1]heptane hydrochloride]
- AD50 Hot-Plate (mice [3]): 6 mg/kg
- Ki (α4β2 nAChR): 0.44 ± 0.05 nM
- AD50 Tail-Flick (mice [4]): 0.038 mg/kg
- Hot-Plate, % effect at dose (mice [5]): 6% @ 10
- Tail-Flick, % effect at dose (mice [6]): 4% @ 10
- Hypothermia, % effect at dose (mice [7]): 0% @ 10
- Spontaneous Activity, % effect at dose (mice [8]; @ 10 mg/kg): 5% @ 10

Molecule: CNC1(C)C2CCC(C2)C1(C)C (centres unmarked) [Mecamylamine, mecamylamine]
- Effect on rate-decreasing effects of nicotine (Male Sprague-Dawley rats [2]): parallel rightward shift
- Shift of discriminative stimulus dose-effect curve of small dose of nicotine (Male Sprague-Dawley rats [2]): rightward and downward shift

Molecule: N#Cc1ccc(-c2cc(C3CC4CCC3N4)cnc2F)cc1 (centres unmarked) [RTI-7527-155, 2-(5-(4-Cyano-phenyl)-6-fluoro-pyridin-3-yl)-7-aza-bicyclo[2.2.1]heptane hydrochloride]
- Antagonism Hot-Plate, % at dose (mice [3]; @ 10000 μg/kg): 24% @
- Ki (α4β2 nAChR): 0.19 ± 0.012 nM
- AD50 Tail-Flick (mice [4]): 0.006 mg/kg
- Hot-Plate, % effect at dose (mice [5]): 18% @ 10
- Tail-Flick, % effect at dose (mice [6]): 4% @ 10
- Hypothermia, % effect at dose (mice [7]): 0% @ 10
- Spontaneous Activity, % effect at dose (mice [8]; @ 10 mg/kg): 0% @ 10

Molecule: CS(=O)(=O)c1ccc(-c2cc(C3CC4CCC3N4)cnc2F)cc1 (centres unmarked) [RTI-7527-154, 2-(5-(4-Methanesulphonyl-phenyl)-6-fluoro-pyridin-3-yl)-7-aza-bicyclo[2.2.1]heptane hydrochloride]
- Antagonism Hot-Plate, % at dose (mice [3]; @ 5000 μg/kg): 40% @
- AD50 Hot-Plate (mice [3]): 2.6 mg/kg
- Blockade of nicotine's hypertensive effects (Male Sprague-Dawley rats [1]; rats): did not block
- Cardiovascular effects (heart rate and mean arterial pressure) (Male Sprague-Dawley rats [1]; rats, s.c., compound alone): no cardiovascular effects
- Ki (α4β2 nAChR): 0.17 nM and 0.08 nM
- Blockade of development of nicotine-induced CPP (Male ICR adult mice; mouse, in vivo): totally blocked
- Preference or aversion induced by compound itself in CPP (Male ICR adult mice; mouse, in vivo): did not induce significant preference or aversion
- Tail-Flick, % effect at dose (mice [6]; [9]): 6% @ 10 and 5% @ 10
- Effect on rate-decreasing effects of nicotine (Male Sprague-Dawley rats [2]): did not, however, alter the potency of nicotine
- Effect on rates of responding (Male Sprague-Dawley rats [2]; compound alone): did not suppress ongoing rates of responding
- Nicotine-like discriminative stimulus effects (Male Sprague-Dawley rats [2]): no efficacy
- Hypothermia, % effect at dose (mice [7]; [9]): 1% @ 10 and 1.2% @ 10
- Spontaneous Activity, % effect at dose (mice [8]; @ 5 mg/kg): 0% @ 5;

Molecule: CN1CCCC1c1cccnc1 (centres unmarked) [nicotine]
- Effect on blood pressure (Male Sprague-Dawley rats [1]; rat, in vivo, sc): substantial increases in blood pressure

Molecule: α-conotoxin AUIB
- Blockade of development of nicotine reward in the CPP test (Male ICR adult mice; mouse, in vivo): blocked the development of nicotine reward

Molecule: c1cnc2cc3c(cc2n1)[C@@H]1CNC[C@H]3C1 [varenicline, reference compound]
- AD50 Hot-Plate (mice [3]): 0.47 mg/kg
- Effect on blood pressure (Male Sprague-Dawley rats [1]; rats, s.c., compound alone): substantial increases in blood pressure
- Preference or aversion induced by compound itself in CPP (Male ICR adult mice; compound alone at the doses used): without a significant effect on its own
- Blockade of nicotine CPP (Male ICR adult mice; mouse, s.c. 10 min prior to nicotine 0.5 mg/kg, several doses): dose-dependently blocked nicotine CPP
- AD50 Tail-Flick (mice [4]): 0.0002 mg/kg
- Hot-Plate, % effect at dose (mice [5]): 10% @ 10
- Tail-Flick, % effect at dose (mice [6]): 11% @ 10
- Nicotine-like discriminative stimulus effects (Male Sprague-Dawley rats [2]): nearly full nicotine-like discriminative stimulus effects
- ED50 (mice [7]; Mus musculus): 2.8 mg/kg
- Ki (α7 nAChR): 32.5 nM
- ED50 (mice [8]; Mus musculus): 2.1 mg/kg
